For series [1], the system named is Alexander cells. The series can be described thus: Cell proliferation assay (Alamar Blue). It is filed as cell-based. The conditions noted are these: 144 h, liver cancer cell line, 6 days. The essentials:
(§1)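 The compounds were tested over nine concentrations diluted 3.16-fold from a top dose of 30 or 100 μM, added 4 h after seeding log-phase cells at 500–1×10^4 per well. Plates were incubated for 6 days, then AlamarBlue fluorescence was read and IC50 values obtained by nonlinear regression.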

In series [2] the test system is HEPG2. The series can be described thus: Cell proliferation assay (Alamar Blue). Type of series: cell-based. Conditions: Homo sapiens, 144 h; HEPG2 liver cancer cell line; 6 days. The essentials: as §1
(In general: Resazurin is reduced to fluorescent resorufin, in cell work by metabolically active cells.)

Series [3] relates to HUH1. Briefly: Cell proliferation assay (Alamar Blue). It is filed as cell-based. Conditions: Homo sapiens, HuH-1, 144 h; HUH1 liver cancer cell line; 6 days. The essentials: as §1
In series [4] the test system is JHH4. The series can be described thus: Cell proliferation assay (Alamar Blue). It is filed as cell-based. The conditions noted are these: JHH-4, 144 h; JHH4 liver cancer cell line; 6 days. The essentials: as §1
Series [5] concerns LNCAP-clone-FGC. The series can be described thus: Cell proliferation assay (Alamar Blue). It is filed as cell-based. The conditions noted are these: Homo sapiens, 144 h; LNCAP-clone-FGC tumor cell line; 6 days. The essentials:
as §1

Series [6] deals with Li-7. The series can be described thus: Cell proliferation assay (Alamar Blue). Type of series: cell-based. Conditions: 144 h; Li-7 liver cancer cell line; 6 days. The essentials:
as §1

Series [7] deals with NCl-H716. The series can be described thus: Cell proliferation assay (Alamar Blue). Conditions: 144 h; NCl-H716 tumor cell line; 6 days. It is filed as cell-based. The essentials: as §1
Series [8] relates to TE-15. Briefly: Cell proliferation assay (Alamar Blue). It is filed as cell-based. The conditions noted are these: Homo sapiens, 144 h; TE-15 tumor cell line; 6 days. The essentials: as §1
In series [9] the test system is 54 commercial tumor cell lines. The series can be described thus: Cell proliferation assay (Alamar Blue), summary over the panel. It is filed as cell-based. The conditions noted are these: in almost all tumor cell lines. As for the experimental part:
1. Instruments and Materials • Thermo 311 CO2 incubator; Haier biosafety cabinet; Molecular Devices microplate reader; Xiangyi brand L530 desktop low speed centrifuge; Olympus IX51 inverted fluorescence microscope, DMEM, RPMI 1640, MEM, DMEM/F12 1:1 medium, Fetal bovine serum, 0.25% trypsin solution, phosphate buffer (Thermo Fisher Shanghai Co., Ltd.); sigma dimethyl sulfoxide (DMSO), resazurin; 54 commercial tumor cell lines (including 26 liver cancer cell lines). Experimental drugs: compounds 1-12 and active drug Linifanib; chemotherapeutic drug Doxorubicin (HY-15142; Shanghai Qianyuan Biomedical Technology Co., Ltd.).
2. Experimental Methods • 2.1 Cultivation of different cell lines • 54 cell lines were cultured in a culture medium containing fetal bovine serum and placed in a 5% CO 2 incubator at 37° C. for incubation. The cells were all grown in an adherent state, and the growth was observed under an inverted microscope, and subculture was performed when the cell confluence rate reached 80%-90%. The proportion and quantity of passage were determined by experimental needs. The ratio of subculture of this cell line was generally 1:2^˜1:3. • 2.2 inhibition effect on the proliferation of different tumor cell lines • Cell test: 54 cell lines in logarithmic growth phase were inoculated in 96-well culture plates at 500^˜1×10^4/well (the optimal seeding density of each cell line was determined in pre-experiment), After incubating at 37° C. for 4 h in a 5% CO2 humidification incubator, added 10 μL of compounds 1-12 or Linifanib to each well, and tested 9 drug concentration gradients for each compound (diluted from the highest concentration of the test by 3.16 times). The solubility of each compound was different at a starting concentration of 30 or 100 μM, respectively. The QC reference compound Doxorubicin was added simultaneously to each cell line test, and the final drug concentrations were 10, 3.16, 1, 0.31, 0.1, 0.03, 0.01, 0.003, and 0.001 μM, respectively. In addition, a positive control group (100% inhibition) and a negative control group (0% inhibition) were set at the same time. The drug group was repeated for 2 wells per concentration, and the positive control group and the negative control group were repeated for 6 wells. After the culture was continued for 6 days in the incubator, AlamarBlue test operation was followed; • AlamarBlue test procedure: Incubated with 10 μL of AlamarBlue reagent per well for 1-4 h, shook for 1-2 min, MD microplate reader EX: 560 nm, EM: 590 nm wavelength to measure fluorescence, recorded the results, calculated the cell inhibition rate of the compound of the invention. […]

Series [10] can be described thus: Plasma incubation stability study. Type of series: in vitro ADME, SD rat. Conditions: for Residual intermediate: rat plasma, 37° C., 2 μg/mL added, listed as intermediate. As for the experimental part:
The purpose of this example was to investigate the stability of the precursor Linifanib-C12-AA5 (compound 8) and the intermediate Linifanib-C12-Asp (compound 12) in plasma, liver homogenate and spleen homogenate (precursor Linifanib-C12-AA5 metabolizes into the intermediates Linifanib-C12-Asp and Linifanib; the intermediate Linifanib-C12-Asp is further metabolized to form Linifanib), and the metabolites were analyzed quantitatively, and the stability of the incubation system was verified with positive drugs, providing references for compound drug evaluation.
• Instrument: AP13000 LC/MS, ABI • Materials: Male SD rats (200-250 g), Beijing Vital River • Test samples: positive drugs and their metabolites M1 and M2, Linifanib-C12-AA5 and its metabolites Linifanib-C12-ASP and Linifanib. 2. Stability study of Linifanib-C12-AA5 and Linifanib-C12-Asp • 2.1 Linifanib-C12-AA5 and Linifanib-C12-Asp plasma incubation stability study protocol Test animal • Type: SD rat; Quantity: 2 • Sex: male; weight: 200-250 g;
Experimental Procedure • 1. Animal blood was collected, blood samples were placed in EDTA anticoagulation tubes, centrifuged at 3000 g for 15 min at 4° C., plasma was separated, and 2 blood samples were mixed in equal volumes; • 2. Weighed and dissolved a certain amount of Linifanib-C12-AA5/Linifanib-C12-Asp in DMSO:MeOH (2:8), prepared 200 μM mother liquor by purity, and added the compound to the plasma to a final concentration of 2 μg/mL. The organic ratio in the system was not more than 0.5%. • 3. Incubated in a 37° C. water bath and set the sampling points to 0, 0.5, 1, 2, 4, 6, and 8 h. At each sampling point, 100 μL of each sample was added to 300 μL of acetonitrile (with internal standard) for precipitation, centrifuged at 12,000 rpm for 5 min, and 200 μL of supernatant was taken for analysis by LC-MS/MS. • 4. Configured the standard curve to quantify Linifanib, Linifanib-C12-Asp and residual Linifanib-C12-AA5. • 2.2 Linifanib-C12-AA5 and Linifanib-C12-Asp liver/spleen homogenate incubation stability study protocol Test animal • Type: SD rat; Quantity: 2 • Sex: Male; Weight: 200-250 g

The source of these data is patent US11351151B2, “Compound having anticancer activity and preparation method and application” (3D Medicines (Beijing) Co., Ltd., priority 2016, dated 2022).

In general, IC50 refers to the concentration that gives 50% inhibition. Read a high IC50 as weaker potency.

Where “and” joins values, the source holds several entries; their conditions need not be identical. Equal values may be shown once. Entries after “also recorded” stand apart in the source; their conditions may differ.

Turning to `Cc1ccc(F)c(NC(=O)Nc2ccc(-c3cccc4c3c(N)nn4C(=O)CCCCCNC(=O)C[C@H](N)C(=O)O)cc2)c1` [Compound 11], the IC50 is 79.5 µM in series [1]; 11.1 µM in [2]; 50.6 µM in [3]; 38.7 µM in [4]; 70.9 µM in series [5]; 35.1 µM in series [6]. Further, the IC50 was 82.2 µM in series [7] and over 100 µM in series [8].
Take `Cc1ccc(F)c(NC(=O)Nc2ccc(-c3cccc4c3c(N)nn4C(=O)CCCCCNC(=O)C[C@H](N)C(=O)N[C@@H](CCC(=O)O)C(=O)O)cc2)c1` [Compound 4]: the IC50 turned out to be 97.2 µM in [1]; 19 µM in series [2]; 66.8 µM in series [3]; 42.5 µM in series [4]; 75.3 µM in [5]; 47.2 µM in [6]. Further, the results for the IC50 in series [7] and in [8] were 43.8 µM and over 100 µM, respectively.
As for `Cc1ccc(F)c(NC(=O)Nc2ccc(-c3cccc4c3c(N)nn4C(=O)CCCCCCCCCCCNC(=O)C[C@H](N)C(=O)N[C@@H](CCC(=O)N[C@@H](CCC(=O)N[C@@H](CCC(=O)N[C@@H](CCC(=O)N[C@@H](CCC(=O)N[C@@H](CCC(=O)N[C@@H](CCC(=O)N[C@@H](CCC(=O)N[C@@H](CCC(=O)O)C(=O)O)C(=O)O)C(=O)O)C(=O)O)C(=O)O)C(=O)O)C(=O)O)C(=O)O)C(=O)O)cc2)c1` [Compound 9], the IC50 in [1] is over 100 µM; in series [2], 11 µM; in series [3], 52.4 µM; in series [4] it was over 100 µM; in [5], over 100 µM; in series [6], 49.3 µM. Besides, the figures for the IC50 in [7] and in series [8] were 43.1 µM and 88.9 µM, respectively.
In the case of `Cc1ccc(F)c(NC(=O)Nc2ccc(-c3cccc4c3c(N)nn4C(=O)CCCCCNC(=O)C[C@H](N)C(=O)N[C@@H](CCC(=O)N[C@@H](CCC(=O)N[C@@H](CCC(=O)N[C@@H](CCC(=O)O)C(=O)O)C(=O)O)C(=O)O)C(=O)O)cc2)c1` [Compound 5], the IC50 was over 100 µM in series [1]; 30.8 µM in series [2]; 82.3 µM in [3]; 60.3 µM in series [4]; over 100 µM in series [5]; 59.1 µM in series [6]. Moreover, the IC50 in series [7] was 66.7 µM; in series [8] it was over 100 µM.
Turning to `Cc1ccc(F)c(NC(=O)Nc2ccc(-c3cccc4c3c(N)nn4C(=O)C[C@H](N)C(=O)N[C@@H](CCC(=O)N[C@@H](CCC(=O)N[C@@H](CCC(=O)N[C@@H](CCC(=O)N[C@@H](CCC(=O)N[C@@H](CCC(=O)N[C@@H](CCC(=O)N[C@@H](CCC(=O)N[C@@H](CCC(=O)O)C(=O)O)C(=O)O)C(=O)O)C(=O)O)C(=O)O)C(=O)O)C(=O)O)C(=O)O)C(=O)O)cc2)c1` [Compound 3], the IC50 in series [1] was 12.7 µM; in series [2], 1.73 µM; in [3] it was 7.93 µM; in [4], 12.1 µM; in [5] it was 15.4 µM; in series [6], 10.1 µM. Also, the IC50 in series [7] was determined as 6.09 µM; in [8], 12.7 µM. For the same compound, the “IC50 values compared with Linifanib” value in series [9] was “close to those of Linifanib”.
As to `Cc1ccc(F)c(NC(=O)Nc2ccc(-c3cccc4c3c(N)nn4C(=O)CCCCCNC(=O)C[C@H](N)C(=O)N[C@@H](CCC(=O)N[C@@H](CCC(=O)N[C@@H](CCC(=O)N[C@@H](CCC(=O)N[C@@H](CCC(=O)N[C@@H](CCC(=O)N[C@@H](CCC(=O)N[C@@H](CCC(=O)N[C@@H](CCC(=O)O)C(=O)O)C(=O)O)C(=O)O)C(=O)O)C(=O)O)C(=O)O)C(=O)O)C(=O)O)C(=O)O)cc2)c1` [Compound 6], the IC50 is over 100 µM in series [1]; 43.4 µM in [2]; over 100 µM in series [3]; 79 µM in series [4]; over 100 µM in series [5]; 82 µM in series [6]. Further, the IC50 in [7] was 92.1 µM; in series [8], over 100 µM.
On to `Cc1ccc(F)c(NC(=O)Nc2ccc(-c3cccc4c3c(N)nn4C(=O)CCCCCCCCCCCNC(=O)C[C@H](N)C(=O)N[C@@H](CCC(=O)O)C(=O)O)cc2)c1` [Compound 7], for which the IC50 in [1] worked out at 98 µM; in series [2], 5.83 µM; in series [3] it was 21.2 µM; in series [4], 39.4 µM; in series [5] it was 26.7 µM; in series [6], 34.5 µM. For the same compound, the IC50 in series [7] came out at 8.45 µM; in [8], 63.6 µM.
As to `Cc1ccc(F)c(NC(=O)Nc2ccc(-c3cccc4c3c(N)nn4C(=O)CCCCCCCCCCCNC(=O)C[C@H](N)C(=O)O)cc2)c1` [Compound 12], the IC50 in [1], in [2], in [3], in series [4], in [5] and in series [6] was over 30 µM each time. The IC50 in series [7] and in series [8] was over 30 µM each time. In addition, in series [10] (rat plasma incubation up to 8 h), the “level of Linifanib produced in plasma” value is reported as “close to zero”. For the same compound, the stability in plasma entry in series [10] (rat plasma incubation up to 8 h, listed as Linifanib-C12-Asp) was “stably incubated in plasma; also recorded: stable in plasma”. The Residual intermediate is 1900 ng/mL and 2180 ng/mL in [10] (0 h); 2100 ng/mL and 2290 ng/mL in series [10] (0.5 h); 2180 ng/mL and 2290 ng/mL in [10] (1 h); 2160 ng/mL and 2110 ng/mL in [10] (2 h); 2210 ng/mL and 2270 ng/mL in series [10] (4 h); 2070 ng/mL and 1880 ng/mL in series [10] (6 h). Further, in series [10] (8 h), the Residual intermediate was 1940 ng/mL and 2060 ng/mL.
